For data set [1], the target named is T1, human recombinant COX-2 (Homo sapiens, UniProt P35354).
T1 construct: purchased Cayman Chemical 560131
T1 sequence (P35354 18-604): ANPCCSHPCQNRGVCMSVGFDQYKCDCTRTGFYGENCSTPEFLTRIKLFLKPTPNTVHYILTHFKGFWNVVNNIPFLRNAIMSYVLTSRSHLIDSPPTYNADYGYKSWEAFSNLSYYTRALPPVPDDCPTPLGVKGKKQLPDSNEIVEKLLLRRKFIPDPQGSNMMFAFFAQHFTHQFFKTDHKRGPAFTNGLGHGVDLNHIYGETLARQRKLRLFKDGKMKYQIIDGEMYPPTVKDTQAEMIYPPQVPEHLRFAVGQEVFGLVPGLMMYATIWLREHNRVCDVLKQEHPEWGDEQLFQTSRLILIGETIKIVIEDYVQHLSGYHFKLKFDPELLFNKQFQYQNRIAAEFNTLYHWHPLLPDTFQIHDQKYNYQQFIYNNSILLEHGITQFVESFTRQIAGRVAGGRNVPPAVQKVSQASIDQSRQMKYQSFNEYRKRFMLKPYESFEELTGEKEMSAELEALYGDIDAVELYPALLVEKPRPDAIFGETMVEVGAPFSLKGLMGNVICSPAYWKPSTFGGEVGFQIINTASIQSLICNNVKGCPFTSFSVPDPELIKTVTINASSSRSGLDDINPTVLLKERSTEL
Briefly: In vitro COX-2 inhibition, enzyme immunoassay kit (Cayman item no. 560131). In kind it is biochemical. The text has this: (§1) The in vitro COX-1/COX-2 isozyme inhibition studies measure the ability of tested compounds to inhibit bovine COX-1 and human recombinant COX-2 using an enzyme immunoassay (COX inhibitor screening assay kit, item no. 560131) according to the manufacturer’s instructions. […].

For data set [2], the target named is T2, bovine COX-1 (Ovis aries, UniProt P05979).
T2 construct: purchased Cayman Chemical 560131
T2 sequence (P05979 25-600): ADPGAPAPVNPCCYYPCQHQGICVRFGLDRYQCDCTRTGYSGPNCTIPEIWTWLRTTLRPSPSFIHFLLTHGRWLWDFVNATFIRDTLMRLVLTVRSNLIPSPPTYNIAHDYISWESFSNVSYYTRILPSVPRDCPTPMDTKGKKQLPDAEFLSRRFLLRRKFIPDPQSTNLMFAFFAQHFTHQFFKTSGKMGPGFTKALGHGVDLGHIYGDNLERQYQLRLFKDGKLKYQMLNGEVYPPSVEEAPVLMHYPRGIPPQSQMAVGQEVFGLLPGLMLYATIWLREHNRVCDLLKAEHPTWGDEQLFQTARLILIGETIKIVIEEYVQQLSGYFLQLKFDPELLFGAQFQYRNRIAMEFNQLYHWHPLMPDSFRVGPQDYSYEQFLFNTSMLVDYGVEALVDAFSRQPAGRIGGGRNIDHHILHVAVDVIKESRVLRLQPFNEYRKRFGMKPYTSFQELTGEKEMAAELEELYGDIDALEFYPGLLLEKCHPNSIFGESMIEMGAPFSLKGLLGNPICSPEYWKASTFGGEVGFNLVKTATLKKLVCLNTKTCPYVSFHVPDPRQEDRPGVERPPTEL
Briefly: In vitro COX-1 inhibition, enzyme immunoassay kit (Cayman item no. 560131). As to conditions: mean of two determinations. Type of data set: biochemical.
From the text: as §1

Data set [3] deals with T3, egg albumin (Gallus gallus, UniProt P01012).
T3 sequence (P01012 1-386): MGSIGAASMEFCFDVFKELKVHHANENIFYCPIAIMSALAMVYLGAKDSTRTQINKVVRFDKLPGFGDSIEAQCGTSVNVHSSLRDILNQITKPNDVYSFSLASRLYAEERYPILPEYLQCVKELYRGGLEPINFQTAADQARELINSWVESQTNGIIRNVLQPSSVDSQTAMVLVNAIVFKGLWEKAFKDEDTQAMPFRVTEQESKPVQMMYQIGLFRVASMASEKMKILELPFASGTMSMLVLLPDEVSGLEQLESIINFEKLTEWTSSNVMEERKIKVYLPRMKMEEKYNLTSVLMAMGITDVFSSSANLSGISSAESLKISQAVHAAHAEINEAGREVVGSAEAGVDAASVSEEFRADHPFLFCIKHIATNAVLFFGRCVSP
The experiment in a line: In situ anti-inflammatory assay: inhibition of protein (albumin) denaturation. As to conditions: protein denaturation, three replicates. The protocol: Protein denaturation is used for the evaluation of anti-inflammatory activity. In this methodology, generally, tertiary and secondary protein structures will typically be destroyed by the application of an external molecule or stress. The biological function of most bio-proteins is lost if it is denatured. It is well reported that a basis of inflammation is denaturation of protein.
The reaction mixture is molecules with serial dilutions (1000, 100, 10, 1, 0.1 µM), phosphate buffered saline (PBS; pH 6.4), and egg albumin. The control used was double distilled water (equal volume). […] After attaining ambient temperature, the absorbance of samples was measured spectrophotometrically at 660 nm using vehicle as blank. […] The experiment was performed in triplicate. Percent inhibition of protein denaturation was calculated using the Equation Inhibition (%) of protein denaturation inhibition (%) = (AC − AS)/AC × 100 where AC: absorbance of control, AS: absorbance of sample.

[4] abbreviates: human recombinant COX-2, mean of two determinations, read-out: IC50 COX-2.
Setting [5] is: pIC50 = −Log (IC50) of the COX-2 IC50, read-out: Activity (experimental pIC50, COX-2) (converted).

Several values for one entry are separate records, joined by “and”; a condition that tells them apart may be missing. Equal values may be shown once. Read-outs that look alike come from different tables or passages of the source.

As usually defined, the melting point is the temperature, or range, at which the solid turns liquid. Broadly, the inhibition is the share of the control response that was lost under treatment.

For `Sc1nnc(COc2ccc3ccccc3c2)n1N=Cc1ccccc1` [Compound 9a, 4-(benzylideneamino)-5-((naphthalen-2-yloxy)methyl)-4H-1,2,4-triazole-3-thiol], the melting point lay within 184 to 186 °C. In addition, the “COX-2 S.I. (selectivity index, COX-1 IC50/COX-2 IC50)” value in data set [1] was 31.5. For the same compound, the IC50 in data set [1] (setting [4]) came out at 220 nM. In data set [1] (setting [5]), the IC50 was 220 nM. This compound also returned an IC50 in data set [2] of 6930 nM.
Regarding `Oc1ccccc1C=Nn1c(S)nnc1COc1ccc2ccccc2c1` [Compound 9b, 2-(((3-mercapto-5-((naphthalen-2-yloxy)methyl)-4H-1,2,4-triazol-4-yl)imino)methyl)phenol], the melting point was in the range of 208 to 219 °C. In data set [1], the “COX-2 S.I. (selectivity index, COX-1 IC50/COX-2 IC50)” value amounted to 40.4. In addition, in data set [1] (setting [4]), the IC50 amounted to 190 nM. In addition, the IC50 in data set [1] (setting [5]) is 190 nM. This compound also had an IC50 in data set [2] of 7670 nM.
Turning to `O=[N+]([O-])c1cccc(C=Nn2c(S)nnc2COc2ccc3ccccc3c2)c1` [Compound 9c, 5-((naphthalen-2-yloxy)methyl)-4-((3-nitrobenzylidene)amino)-4H-1,2,4-triazole-3-thiol], the melting point fell in the range of 200 to 202 °C. Besides, the “COX-2 S.I. (selectivity index, COX-1 IC50/COX-2 IC50)” value in data set [1] is on record as 72.5. Also, in data set [1] (setting [4]), the IC50 amounted to 130 nM. Also, the IC50 in data set [1] (setting [5]) is 130 nM. In addition, the IC50 in data set [2] was 9430 nM.
Take `O=C(CCl)Sc1nnc(COc2ccc3ccccc3c2)n1N=Cc1ccccc1` [Compound 10a]: in data set [1], the “COX-2 S.I. (selectivity index, COX-1 IC50/COX-2 IC50)” value was 74.8. The IC50 in data set [1] (setting [4]) is 130 nM; in data set [1] (setting [5]), 130 nM; in data set [2] it was 9720 nM.
Turning to `O=C(CCl)Sc1nnc(COc2ccc3ccccc3c2)n1N=Cc1ccccc1O` [Compound 10b], in data set [1], the “COX-2 S.I. (selectivity index, COX-1 IC50/COX-2 IC50)” value was determined as 70.6. For the same compound, the IC50 in data set [1] (setting [4]) is 140 nM; in data set [1] (setting [5]), 140 nM; in data set [2], 9890 nM.
As to `O=C(CCl)Sc1nnc(COc2ccc3ccccc3c2)n1N=Cc1cccc([N+](=O)[O-])c1` [Compound 10c], in data set [1], the “COX-2 S.I. (selectivity index, COX-1 IC50/COX-2 IC50)” value is on record as 84.3. Further, the IC50 in data set [1] (setting [4]) is 120 nM; in data set [1] (setting [5]) it was 120 nM; in data set [2], 10100 nM.
As to `COc1ccc(C=Nn2c(COc3ccc4ccccc4c3)nnc2SC(=O)CCl)cc1` [Compound 10d], the “COX-2 S.I. (selectivity index, COX-1 IC50/COX-2 IC50)” value in data set [1] worked out at 94.1. The IC50 was 110 nM in data set [1] (setting [4]), 110 nM in data set [1] (setting [5]) and 10300 nM in data set [2].
Compound `Nc1ncc(Sc2nnc(COc3ccc4ccccc4c3)n2N=Cc2ccccc2)o1` [Compound 11a, 5-((4-(benzylideneamino)-5-((naphthalen-2-yloxy)methyl)-4H-1,2,4-triazol-3-yl)thio)oxazol-2-amine] showed a melting point of 162 to 164 °C. For the same compound, the “COX-2 S.I. (selectivity index, COX-1 IC50/COX-2 IC50)” value in data set [1] is on record as 154.6. Also, the IC50 in data set [1] (setting [4]) came to 80 nM. For the same compound, the IC50 in data set [1] (setting [5]) was 80 nM. In data set [2], the IC50 worked out at 12400 nM.
Compound `Nc1ncc(Sc2nnc(COc3ccc4ccccc4c3)n2N=Cc2ccccc2O)o1` [Compound 11b, 2-(((3-((2-aminooxazol-5-yl)thio)-5-((naphthalen-2-yloxy)methyl)-4H-1,2,4-triazol-4-yl)imino)methyl)phenol] had a melting point of 80 to 81 °C. Further, the “COX-2 S.I. (selectivity index, COX-1 IC50/COX-2 IC50)” value in data set [1] was 119.2. In addition, the IC50 in data set [1] (setting [4]) worked out at 90 nM. In data set [1] (setting [5]), the IC50 was 89.9 nM. Also, in data set [2], the IC50 was 10700 nM.
With `Nc1ncc(Sc2nnc(COc3ccc4ccccc4c3)n2N=Cc2cccc([N+](=O)[O-])c2)o1` [Compound 11c, 5-((5-((naphthalen-2-yloxy)methyl)-4-((3-nitrobenzylidene)amino)-4H-1,2,4-triazol-3-yl)thio)oxazol-2-amine], the melting point was 196 to 198 °C. The “COX-2 S.I. (selectivity index, COX-1 IC50/COX-2 IC50)” value in data set [1] is on record as 252.6. In addition, the IC50 in data set [1] (setting [4]) was 50 nM. Moreover, the IC50 in data set [1] (setting [5]) is 50 nM and 49 nM. The same compound had an IC50 in data set [2] of 12600 nM.
Consider `COc1ccc(C=Nn2c(COc3ccc4ccccc4c3)nnc2Sc2cnc(N)o2)cc1` [Compound 11d, 5-((4-((4-methoxybenzylidene)amino)-5-((naphthalen-2-yloxy)methyl)-4H-1,2,4-triazol-3-yl)thio)oxazol-2-amine], for which the melting point fell in the range of 70 to 71 °C. The “COX-2 S.I. (selectivity index, COX-1 IC50/COX-2 IC50)” value in data set [1] was determined as 192.2. Moreover, the IC50 in data set [1] (setting [4]) came to 60 nM. For the same compound, in data set [1] (setting [5]), the IC50 was 60.1 nM. For the same compound, the IC50 in data set [2] stood at 11500 nM.
For the compound `Nc1ncc(Sc2nnc(COc3ccc4ccccc4c3)n2N=Cc2ccccc2)s1` [Compound 12a, 5-((4-(benzylideneamino)-5-((naphthalen-2-yloxy)methyl)-4H-1,2,4-triazol-3-yl)thio)thiazol-2-amine], the melting point is 145 to 146 °C. Also, the “COX-2 S.I. (selectivity index, COX-1 IC50/COX-2 IC50)” value in data set [1] is given as 98.3. Also, the IC50 in data set [1] (setting [4]) stood at 100 nM. In addition, in data set [1] (setting [5]), the IC50 is 100 nM. This compound displayed an IC50 in data set [2] of 9830 nM.
Compound `Nc1ncc(Sc2nnc(COc3ccc4ccccc4c3)n2N=Cc2ccccc2O)s1` [Compound 12b, 2-(((3-((2-aminothiazol-5-yl)thio)-5-((naphthalen-2-yloxy)methyl)-4H-1,2,4-triazol-4-yl)imino)methyl)phenol] gave a melting point of 77 to 78 °C. In addition, the “COX-2 S.I. (selectivity index, COX-1 IC50/COX-2 IC50)” value in data set [1] is 202.0 and 202.2. Besides, the IC50 in data set [1] (setting [4]) worked out at 60 nM. In addition, in data set [1] (setting [5]), the IC50 was 60.1 nM. For the same compound, the IC50 in data set [2] turned out to be 12100 nM.
`Nc1ncc(Sc2nnc(COc3ccc4ccccc4c3)n2N=Cc2cccc([N+](=O)[O-])c2)s1` [Compound 12c, 5-((5-((naphthalen-2-yloxy)methyl)-4-((3-nitrobenzylidene)amino)-4H-1,2,4-triazol-3-yl)thio)thiazol-2-amine] displayed a melting point of 182 to 184 °C. Also, the “COX-2 S.I. (selectivity index, COX-1 IC50/COX-2 IC50)” value in data set [1] is 325.0 and 311.8. Also, the IC50 in data set [1] (setting [4]) amounted to 40 nM. Moreover, in data set [1] (setting [5]), the IC50 is 40.1 nM. In addition, the IC50 in data set [2] stood at 12500 nM.
Take `O=C(O)Cc1ccccc1Nc1c(Cl)cccc1Cl` [Diclofenac sodium, reference compound]: the inhibition at 1000 µM in data set [3] (conc. 1000 µM, read-out: % of inhibition ± SEM at conc. 1000) stood at 94.2%. Also, in data set [3] (conc. 0.1 (µM)), the “% of inhibition ± SEM at conc. 0.1” value amounted to 32.14±1.01%. In addition, the “% of inhibition ± SEM at conc. 1” value in data set [3] (conc. 1 (µM)) is 61.45±1.21%. For the same compound, in data set [3] (conc. 10 (µM)), the “% of inhibition ± SEM at conc. 10” value was determined as 67.32±0.95%. Moreover, the “% of inhibition ± SEM at conc. 100” value in data set [3] (conc. 100 (µM)) was 82.43±1.87%.
